This is an account of results in patent US10383333B2, “Carbamate compound and use thereof” (SUMITOMO CHEMICAL COMPANY, LIMITED, priority 2015, dated 2019).

The subject of this test is wheat rust fungus (Puccinia recondita). Nature of the test: Test Example 2: wheat rust, foliar spray before inoculation. It is filed as in vivo. Conditions: 500 ppm foliar spray on wheat (Shirogane), inoculated 5 days after spraying, formulated per Formulation Example 6.

Bounds are passed on as bounds.

As for `COC(=O)Nc1ccccc1COc1ccc(-c2ccccn2)cc1` [methyl N-(2-{[4-(pyridine-2-yl)phenoxy)methyl}phenyl)carbamate], the “area of the lesion relative to untreated wheat” value was at least 70%.
